Patent US20240082228A1, “SARS-COV-2 THERAPEUTICS” (priority 2021, published 2024)
Values joined by “and” are separate entries in the source; they are usually repeats but may differ in a detail not shown here. Equal values may be shown once. Read-outs that look alike come from different tables or passages of the source.

Assays:
[1] = for Average Cell Number (1 uM) / Cell Number (1 uM) / Normalized Cell Number (1 uM): compound at 1 uM; for Average Cell Number (1 uM) / Average Cell Number (5 uM): average of normalized cell number, n=3, relative to DMSO; for Cell Number (1 uM) / Normalized Cell Number (1 uM) / Cell Number (5 uM) / Normalized Cell Number (5 uM): single replicate; for Cell Number (1 uM) / Cell Number (5 uM): raw cell count; for Normalized Cell Number (1 uM) / Normalized Cell Number (5 uM): relative to negative control DMSO; for Average Cell Number (5 uM) / Cell Number (5 uM) / Normalized Cell Number (5 uM): compound at 5 uM
SARS-CoV-2 = assay: microbe, parasite or virus in culture; assay type: cell-based; settings: for activity at 1 µM: Severe acute respiratory syndrome coronavirus 2, 1 uM, read-out: Normalized Infection (1 uM); for activity at 1 µM / activity at 5 µM: single replicate, relative to negative control DMSO; for activity at 5 µM: Severe acute respiratory syndrome coronavirus 2, 5 uM, read-out: Normalized Infection (5 uM); for HIT: overall, 1 or 5 uM
[2] = 1 uM, average log2FC infection (n=3) relative to DMSO
[3] = 5 uM, average log2FC infection (n=3) relative to DMSO

Cc1cncc(CN2CCC(=C3c4ccc(Cl)cc4CCc4cccnc43)CC2)c1 [Rupatadine, rupatadine]
Toxic (1 uM) [1]: 0 (non-toxic (Normalized Cell number>0.65)
Toxic (5 uM) [1]: 0 (non-toxic (Normalized Cell number>0.65)
Average Cell Number (1 uM) [1]: 0.795
Cell Number (1 uM) [1]: 4468 and 4936 and 4572
Normalized Cell Number (1 uM) [1]: 0.7625 and 0.8423 and 0.7802
Average Cell Number (5 uM) [1]: 0.9184
Cell Number (5 uM) [1]: 5730 and 5462 and 5136
Normalized Cell Number (5 uM) [1]: 0.9669 and 0.9217 and 0.8667
Average Infection (1 uM) (SARS-CoV-2): −0.7916
Average Infection (5 uM) (SARS-CoV-2): −0.09608
HIT (2 Std, 1 uM) (SARS-CoV-2; 1 uM): HIT
activity at 1 µM (SARS-CoV-2): 51.5%
activity at 5 µM (SARS-CoV-2): 88.1%
HIT (SARS-CoV-2): Yes

C[C@@H]1CN(Cc2ccc(F)cc2)[C@@H](C)CN1C(=O)c1cc2c(C(=O)C(=O)N(C)C)cn(C)c2cc1Cl [SCIO 469, talmapimod]
Toxic (1 uM) [1]: 0 (non-toxic (Normalized Cell number>0.65)
Toxic (5 uM) [1]: 0 (non-toxic (Normalized Cell number>0.65)
Average Cell Number (1 uM) [1]: 0.7439
Cell Number (1 uM) [1]: 3987 and 4564 and 4526
Normalized Cell Number (1 uM) [1]: 0.6804 and 0.7788 and 0.7724
Average Cell Number (5 uM) [1]: 0.95
Cell Number (5 uM) [1]: 5672 and 5345 and 5872
Normalized Cell Number (5 uM) [1]: 0.9571 and 0.9019 and 0.9909
HIT (2 Std, 1 uM) (SARS-CoV-2; 1 uM): HIT
Average Infection (1 uM) (SARS-CoV-2; [2]): −1.039
HIT (2 Stdv, 5 uM) (SARS-CoV-2; 5 uM): HIT
Average Infection (5 uM) (SARS-CoV-2; [3]): −0.8454
activity at 1 µM (SARS-CoV-2): 47.9%
activity at 5 µM (SARS-CoV-2): 57.5%
HIT (SARS-CoV-2): Yes

COc1nc2ccc(Br)cc2cc1[C@@H](c1ccccc1)[C@@](O)(CCN(C)C)c1cccc2ccccc12 [TMC207, bedaquiline]
Toxic (5 uM) [1]: 0 (non-toxic (Normalized Cell number>0.65)
Average Cell Number (1 uM) [1]: 0.6048
Cell Number (1 uM) [1]: 3465 and 3507 and 3661
Normalized Cell Number (1 uM) [1]: 0.5913 and 0.5985 and 0.6247
Average Cell Number (5 uM) [1]: 0.8191
Cell Number (5 uM) [1]: 5108 and 4528 and 4927
Normalized Cell Number (5 uM) [1]: 0.8619 and 0.7641 and 0.8314
HIT (2 Std, 1 uM) (SARS-CoV-2; 1 uM): HIT
Average Infection (1 uM) (SARS-CoV-2; [2]): −0.3556
HIT (2 Stdv, 5 uM) (SARS-CoV-2; 5 uM): HIT
Average Infection (5 uM) (SARS-CoV-2; [3]): −0.559
activity at 1 µM (SARS-CoV-2): 72.7%
activity at 5 µM (SARS-CoV-2): 65.9%
HIT (SARS-CoV-2): Yes

CC(C(=O)O)c1ccc(C(=O)c2ccccc2)s1 (centres unmarked) [Tiaprofenic Acid, tiaprofenic acid]
Toxic (1 uM) [1]: 0 (non-toxic (Normalized Cell number>0.65)
Toxic (5 uM) [1]: 0 (non-toxic (Normalized Cell number>0.65)
Average Cell Number (1 uM) [1]: 0.8638
Cell Number (1 uM) [1]: 5511 and 5420 and 4255
Normalized Cell Number (1 uM) [1]: 0.9404 and 0.9249 and 0.7261
Average Cell Number (5 uM) [1]: 0.9679
Cell Number (5 uM) [1]: 6146 and 5679 and 5383
Normalized Cell Number (5 uM) [1]: 1.037 and 0.9583 and 0.9083
HIT (2 Std, 1 uM) (SARS-CoV-2; 1 uM): HIT
Average Infection (1 uM) (SARS-CoV-2; [2]): −0.4462
Average Infection (5 uM) (SARS-CoV-2; [3]): −0.06461
activity at 1 µM (SARS-CoV-2): 71.2%
HIT (SARS-CoV-2): Yes

FC(F)(F)c1cccc(C2=CCN(CCc3ccc4ccccc4c3)CC2)c1 [Xaliproden, xaliproden]
Toxic (1 uM) [1]: 0 (non-toxic (Normalized Cell number>0.65)
Toxic (5 uM) [1]: 0 (non-toxic (Normalized Cell number>0.65)
Average Cell Number (1 uM) [1]: 0.7188
Cell Number (1 uM) [1]: 4440 and 4549 and 3647
Normalized Cell Number (1 uM) [1]: 0.7577 and 0.7763 and 0.6224
Average Cell Number (5 uM) [1]: 0.9135
Cell Number (5 uM) [1]: 5577 and 5737 and 4927
Normalized Cell Number (5 uM) [1]: 0.9411 and 0.9681 and 0.8314
HIT (2 Std, 1 uM) (SARS-CoV-2; 1 uM): HIT
Average Infection (1 uM) (SARS-CoV-2; [2]): −0.6769
Average Infection (5 uM) (SARS-CoV-2; [3]): −0.143
HIT (SARS-CoV-2): Yes
